{"source": "patent US20240307392A1", "about": "“ERK1/2 AND EGFR INHIBITORS COMBINATION THERAPY” (Erasca, Inc., priority 2021, published 2024)", "experiment": "Body weight loss / DietGel supply in CR0004 PDX study", "format": "in vivo, Balb/c nude mice", "conditions": "Compound 1 30 mg/kg/dose BID + encorafenib 90 mg/kg QD + cetuximab 30 mg/kg Q3D", "protocol": "Female Balb/c nude mice were purchased from the Beijing Anikeeper Biotech Co., Ltd (Beijing. China). Mice were between 9-11 weeks of age at the time of implantation. Mice were hosted at a special pathogen-free (SPF) environment of the vivarium facility and acclimated to their new environment for at least 3 days prior to initiation of any experiments according to IACUC protocol. All procedures related to animal handling, care, and treatment in this study were performed according to guidelines approved by the Institutional Animal Care and Use Committee (IACUC) of Crown Bioscience (Beijing. China). During the study, the care and use of animals were conducted in accordance with the regulations of the Association for Assessment and Accreditation of Laboratory Animal Care (AAALAC). In addition, all portions of this study performed at Crown Bioscience (Beijing, China) adhered to the study protocols approved by the study director and applicable standard operating procedures (SOPs).\nTreatment started on the day of randomization. The treatment start day was denoted as treatment day 0. Mice were dosed by administration of vehicle control solution. Compound 1 at 30 mg/kg/dose BID, p.o., encorafenib at 90 mg/kg QD, p.o., and cetuximab at 30 mg/kg Q3D, i.p, as monotherapies. […]", "data": [{"smiles": "Cc1cnc(NC2CCOCC2)nc1-n1cnc(C(=O)N[C@H](CN)c2cc(F)cc(Cl)c2)c1", "note": "[Compound 1, (S)-N-(2-amino-1-(3-chloro-5-fluorophenyl)ethyl)-1(5-methyl-2-((tetrahydro-2H-pyran-4-yl)amino)pyrimidin-4-yl)-1H-imidazole-4-carboxamide]", "values": [{"measurement": "start of DietGel supply (added where at least two mice started showing BWL >10%)", "value": 21, "unit": "treatment day"}]}]}
